From ChEMBL document CHEMBL1201862, “PubChem BioAssay data set” (2004)
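Five compound concentrations were applied to cells in 96-well plates for 48 hours; endpoints were derived by simple linear interpolation of the resulting dose-response curve. GI50 = concentration required for 50% inhibition of growth.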 The source made the active and inactive calls. Cut-off read from the data, not from the text of the source: active = GI50 up to about 1.1 µM and inactive = higher.

How the values were obtained:
Test in all cases: NCI-60 cell line screen, 48 h
786-0 = system: 786-0
A549 = system: A549
ACHN = system: ACHN
CCRF-CEM = system: CCRF-CEM
COLO 205 = system: COLO 205
DMS-114 = system: DMS-114
DMS-273 = system: DMS-273
EKVX = system: EKVX
HCT-116 = system: HCT-116
HCT-15 = system: HCT-15
HL-60 = system: HL-60
HOP-62 = system: HOP-62
HT-29 = system: HT-29
IGROV-1 = system: IGROV-1
K562 = system: K562
KM-20L2 = system: KM-20L2
KM12 = system: KM12
LOX IMVI = system: LOX IMVI
LXFL 529 = system: LXFL 529
M14 = system: M14
M19-MEL = system: M19-MEL
MOLT-4 = system: MOLT-4
Malme-3M = system: Malme-3M
NCI-H226 = system: NCI-H226
NCI-H23 = system: NCI-H23
NCI-H460 = system: NCI-H460
NCI-H522 = system: NCI-H522
OVCAR-3 = system: OVCAR-3
OVCAR-4 = system: OVCAR-4
OVCAR-5 = system: OVCAR-5
OVCAR-8 = system: OVCAR-8
RPMI-8226 = system: RPMI-8226
RXF 393 = system: RXF 393
SF-268 = system: SF-268
SF-295 = system: SF-295
SF-539 = system: SF-539
SK-MEL-28 = system: SK-MEL-28
SK-MEL-2 = system: SK-MEL-2
SK-MEL-5 = system: SK-MEL-5
SN12C = system: SN12C
SNB-19 = system: SNB-19
SNB-75 = system: SNB-75
SNB-78 = system: SNB-78
SR = system: SR
SW-620 = system: SW-620
TK-10 = system: TK-10
U-251 = system: U-251
UACC-62 = system: UACC-62
UO-31 = system: UO-31
XF498 = system: XF498
A498 = system: A498
CAKI-1 = system: CAKI-1
DLD-1 = system: DLD-1
HOP-92 = system: HOP-92
SK-OV-3 = system: SK-OV-3
UACC-257 = system: UACC-257

Structure (SMILES): c1ccc(N2N=C(c3ccco3)CC2c2ccco2)cc1 (centres undefined)
- GI50 (786-0): > 100 µM (inactive)
- GI50 (A549): > 100 µM (inactive)
- GI50 (ACHN): 42.6 µM (inactive)
- GI50 (CCRF-CEM): 42.3 µM (inactive)
- GI50 (COLO 205): > 100 µM (inactive)
- GI50 (DMS-114): 49.2 µM (inactive)
- GI50 (DMS-273): > 100 µM (inactive)
- GI50 (EKVX): 98.9 µM (inactive)
- GI50 (HCT-116): 32.5 µM (inactive)
- GI50 (HCT-15): 69.8 µM
- GI50 (HL-60): 25.2 µM (inactive)
- GI50 (HOP-62): > 100 µM (inactive)
- GI50 (HT-29): 75.9 µM (inactive)
- GI50 (IGROV-1): > 100 µM (inactive)
- GI50 (K562): 34.3 µM (inactive)
- GI50 (KM-20L2): > 100 µM (inactive)
- GI50 (KM12): 47.4 µM (inactive)
- GI50 (LOX IMVI): > 100 µM (inactive)
- GI50 (LXFL 529): 64.1 µM (inactive)
- GI50 (M14): > 100 µM (inactive)
- GI50 (M19-MEL): > 100 µM (inactive)
- GI50 (MOLT-4): 20.5 µM (inactive)
- GI50 (Malme-3M): > 100 µM (inactive)
- GI50 (NCI-H226): 66.8 µM (inactive)
- GI50 (NCI-H23): 66.5 µM (inactive)
- GI50 (NCI-H460): 66.1 µM (inactive)
- GI50 (NCI-H522): 46.9 µM (inactive)
- GI50 (OVCAR-3): 59.6 µM (inactive)
- GI50 (OVCAR-4): > 100 µM (inactive)
- GI50 (OVCAR-5): > 100 µM (inactive)
- GI50 (OVCAR-8): > 100 µM (inactive)
- GI50 (RPMI-8226): 35.2 µM (inactive)
- GI50 (RXF 393): 52.4 µM (inactive)
- GI50 (SF-268): > 100 µM (inactive)
- GI50 (SF-295): 57.1 µM (inactive)
- GI50 (SF-539): > 100 µM (inactive)
- GI50 (SK-MEL-28): > 100 µM (inactive)
- GI50 (SK-MEL-2): > 100 µM (inactive)
- GI50 (SK-MEL-5): 51.4 µM (inactive)
- GI50 (SN12C): > 100 µM (inactive)
- GI50 (SNB-19): > 100 µM (inactive)
- GI50 (SNB-75): 22.3 µM (inactive)
- GI50 (SNB-78): > 100 µM (inactive)
- GI50 (SR): 30.3 µM (inactive)
- GI50 (SW-620): > 100 µM (inactive)
- GI50 (TK-10): > 100 µM (inactive)
- GI50 (U-251): > 100 µM (inactive)
- GI50 (UACC-62): 91.6 µM (inactive)
- GI50 (UO-31): 28.6 µM (inactive)
- GI50 (XF498): > 100 µM (inactive)

Structure (SMILES): O=C(O)CP(=S)(S)c1ccccc1 (centres undefined)
- GI50 (786-0): > 100 µM (inactive)
- GI50 (A498): > 100 µM (inactive)
- GI50 (A549): > 100 µM (inactive)
- GI50 (ACHN): > 100 µM (inactive)
- GI50 (CAKI-1): > 100 µM (inactive)
- GI50 (CCRF-CEM): > 100 µM (inactive)
- GI50 (COLO 205): > 100 µM (inactive)
- GI50 (DLD-1): > 100 µM (inactive)
- GI50 (DMS-114): > 100 µM (inactive)
- GI50 (DMS-273): > 100 µM (inactive)
- GI50 (EKVX): > 100 µM (inactive)
- GI50 (HL-60): > 100 µM (inactive)
- GI50 (HOP-62): > 100 µM (inactive)
- GI50 (HOP-92): > 100 µM (inactive)
- GI50 (HT-29): > 100 µM (inactive)
- GI50 (K562): > 100 µM (inactive)
- GI50 (KM-20L2): > 10 µM (inactive)
- GI50 (KM12): > 100 µM (inactive)
- GI50 (LOX IMVI): > 100 µM (inactive)
- GI50 (LXFL 529): > 100 µM (inactive)
- GI50 (M14): > 100 µM (inactive)
- GI50 (M19-MEL): > 100 µM (inactive)
- GI50 (MOLT-4): > 100 µM (inactive)
- GI50 (Malme-3M): > 100 µM (inactive)
- GI50 (NCI-H226): > 100 µM (inactive)
- GI50 (NCI-H23): > 100 µM (inactive)
- GI50 (NCI-H460): > 100 µM (inactive)
- GI50 (NCI-H522): > 100 µM (inactive)
- GI50 (OVCAR-4): > 100 µM (inactive)
- GI50 (OVCAR-8): > 100 µM (inactive)
- GI50 (RXF 393): > 100 µM (inactive)
- GI50 (SF-268): > 100 µM (inactive)
- GI50 (SF-295): > 100 µM (inactive)
- GI50 (SF-539): > 100 µM (inactive)
- GI50 (SK-MEL-28): > 100 µM (inactive)
- GI50 (SK-MEL-2): > 100 µM (inactive)
- GI50 (SK-MEL-5): > 100 µM (inactive)
- GI50 (SK-OV-3): > 100 µM (inactive)
- GI50 (SN12C): > 100 µM (inactive)
- GI50 (SNB-19): > 100 µM (inactive)
- GI50 (SNB-78): > 100 µM (inactive)
- GI50 (SR): > 100 µM (inactive)
- GI50 (SW-620): > 100 µM (inactive)
- GI50 (TK-10): > 100 µM (inactive)
- GI50 (U-251): > 100 µM (inactive)
- GI50 (UACC-257): > 100 µM (inactive)
- GI50 (UACC-62): > 100 µM (inactive)
- GI50 (UO-31): > 100 µM (inactive)
- GI50 (XF498): > 100 µM (inactive)
